Assay results from patent publication USRE46630E1, “Substituted 4-pyridones and their use as inhibitors of neutrophil elastase activity” (Boehringer Ingelheim International GmbH, priority 2012, dated 2017).

Target: T1, Human neutrophil elastase (Homo sapiens, UniProt P08246)
T1 construct: purchased Calbiochem 324681
T1 sequence (P08246 30-267): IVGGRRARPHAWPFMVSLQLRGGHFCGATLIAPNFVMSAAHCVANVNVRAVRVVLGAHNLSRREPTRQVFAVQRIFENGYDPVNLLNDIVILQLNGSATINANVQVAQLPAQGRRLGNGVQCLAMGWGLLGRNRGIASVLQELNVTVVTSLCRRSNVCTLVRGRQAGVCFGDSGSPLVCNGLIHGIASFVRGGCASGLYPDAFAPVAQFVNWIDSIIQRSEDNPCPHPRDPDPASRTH
Test: Human Neutrophil Elastase Assay
Format: biochemical
Details: Neutrophil Elastase assay; substrate MeOSuc-Ala-Ala-Pro-Val-AMC 250 μM; 15 min preincubation, 60 min incubation at room temperature; pH 7.5
Outline: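 Run in 100 mM Tris, 500 mM NaCl, pH 7.5 with 0.01% BSA, with compounds prediluted in DMSO then buffer (5% DMSO final). Fluorescence was read at 380 nm excitation/460 nm emission after enzyme inactivation. Values were normalised to inactivated-enzyme (0%) and uninhibited-enzyme (100%) controls.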

SMILES | IC50
CNC(=O)c1cn(Cc2ccc(C#N)cn2)c(C)c(-c2cccc(C(F)F)c2)c1=O [Example 34] | 31.2 nM
Cc1c(-c2cccc(C(F)(F)F)c2)c(=O)c(C(=O)NCCCO)cn1Cc1ccc(C#N)cc1 [Example 1.9] | 8.4 nM
Cc1c(-c2cccc(C(F)F)c2)c(=O)c(C(=O)NCCO)cn1C(C)c1ccc(C#N)cc1 (stereo not shown) [Example 8.9] | 1.9 nM
Cc1c(-c2ccnc(C(F)(F)F)c2)c(=O)c(C(=O)NCc2cnn(C)c2)cn1C(C)c1ccc(C#N)cc1 (stereo not shown) [Example 9.19] | 8.9 nM
Cc1c(-c2ccnc(C(F)(F)F)c2)c(=O)c(C(=O)NCC2CCCCO2)cn1C(C)c1ccc(C#N)cc1 (stereo not shown) [Example 9.37] | 32.9 nM
Cc1c(-c2ccnc(C(F)(F)F)c2)c(=O)c(C(=O)NCC2CC2)cn1C(C)c1ccc(C#N)cc1 (stereo not shown) [Example 9.20] | 10.9 nM
CNC(=O)c1cn(Cc2ccc(Cl)cc2)c(C)c(-c2cccc(C(F)(F)F)c2)c1=O [Example 3.4] | 29.1 nM
Cc1c(-c2cccc(C(F)F)c2)c(=O)c(C(=O)NCc2cnn(C)c2)cn1C(C)c1ccc(C#N)cc1 (stereo not shown) [Example 8.14] | 3.6 nM
CCOCCNC(=O)c1cn(C(C)c2ccc(C#N)cc2)c(C)c(-c2ccnc(C(F)(F)F)c2)c1=O (stereo not shown) [Example 9.58] | 5.4 nM
Cc1c(-c2ccnc(C(F)(F)F)c2)c(=O)c(C(=O)NC2CCOC2)cn1C(C)c1ccc(C#N)cc1 (stereo not shown) [Example 9.34] | 23.5 nM
Cc1c(-c2cc(C(F)(F)F)ccn2)c(=O)c(C(=O)NCc2ccc(S(C)(=O)=O)cc2)cn1Cc1ccc(C#N)cc1 [Example 6.12] | 3.8 nM
CNC(=O)c1cn(Cc2ccc(C#N)c(F)c2)c(C)c(-c2ccnc(C(F)(F)F)c2)c1=O [Example 43, 1-(4-Cyano-3-fluoro-benzyl)-2-methyl-4-oxo-2′-trifluoromethyl-1,4-dihydro-[3,4′]bipyridinyl-5-carboxylic acid methylamide] | 48.4 nM
Cc1c(-c2cccc(C(F)(F)F)c2)c(=O)c(C(=O)NC2CCNC2=O)cn1C(C)c1ccc(C#N)cc1 (stereo not shown) [Example 7.12] | 1.5 nM
Cc1c(-c2ccnc(C(F)(F)F)c2)c(=O)c(C(=O)NC2CCCC2O)cn1C(C)c1ccc(C#N)cc1 (stereo not shown) [Example 9.36] | 33.9 nM
Cc1c(-c2ccnc(C(F)(F)F)c2)c(=O)c(C(=O)NCC(C)O)cn1C(C)c1ccc(C#N)cc1 (stereo not shown) [Example 9.62] | 12 nM
CNC(=O)c1cn(C(C)c2ccc(C#N)cn2)c(C)c(-c2cccc(C(F)(F)F)c2)c1=O (single isomer, unassigned) [Example 15B] | 67.8 nM
Cc1c(-c2cccc(C(F)F)c2)c(=O)c(C(=O)NCCCO)cn1C(C)c1ccc(C#N)cc1 (stereo not shown) [Example 8.4] | 1.8 nM
Cc1c(-c2cccc(C(F)(F)F)c2)c(=O)c(C(=O)NC(C)CO)cn1Cc1ccc(C#N)cc1 (stereo not shown) [Example 1.22] | 44.6 nM

SMILES | IC50
Cc1c(-c2ccnc(C(F)(F)F)c2)c(=O)c(C(=O)NCc2ccc(S(C)(=O)=O)cc2)cn1Cc1ccc(C#N)c(F)c1 [Example 5.2] | 1.2 nM
Cc1c(-c2ccnc(C(F)(F)F)c2)c(=O)c(C(=O)NCc2ccc(S(C)(=O)=O)cc2)cn1Cc1ccc(C#N)cc1F [Example 5.3] | 1.4 nM
Cc1c(-c2cccc(C(F)(F)F)c2)c(=O)c(C(=O)NCc2ccc(S(C)(=O)=O)cn2)cn1C(C)c1ccc(C#N)cc1 (stereo not shown) [Example 4.10] | < 1 nM
COc1cc(C#N)ccc1Cn1cc(C(=O)NCc2ccc(S(C)(=O)=O)cc2)c(=O)c(-c2cccc(C(F)(F)F)c2)c1C [Example 2.6] | 1.6 nM
Cc1c(-c2ccnc(C(F)(F)F)c2)c(=O)c(C(=O)NCC2CCO2)cn1C(C)c1ccc(C#N)cc1 (stereo not shown) [Example 9.27] | 13.7 nM
Cc1c(-c2ccnc(C(F)(F)F)c2)c(=O)c(C(=O)NC2CNC(=O)C2)cn1C(C)c1ccc(C#N)cc1 (stereo not shown) [Example 9.8] | 4.2 nM
Cc1c(-c2cccc(C(F)(F)F)c2)c(=O)c(C(=O)NCCCCO)cn1Cc1ccc(C#N)cc1 [Example 1.20] | 10.6 nM
CNC(=O)c1cn(Cc2ccc(C#N)cc2OC)c(C)c(-c2cccc(C(F)(F)F)c2)c1=O [Example 3.7] | 26.4 nM
Cc1c(-c2ccnc(C(F)(F)F)c2)c(=O)c(C(=O)NCC2CCOCC2)cn1C(C)c1ccc(C#N)cc1 (stereo not shown) [Example 9.28] | 12.8 nM
Cc1c(-c2cccc(C(F)(F)F)c2)c(=O)c(C(=O)NCc2ccc(S(C)(=O)=O)cn2)cn1Cc1ccncc1 [Example 4.3] | 58 nM
CNC(=O)c1cn(Cc2ccc(C#N)cn2)c(C)c(-c2ccnc(C(F)(F)F)c2)c1=O [Example 44, 1-(5-Cyano-pyridin-2-ylmethyl)-2-methyl-4-oxo-2′-trifluoromethyl-1,4-dihydro-[3,4′]bipyridinyl-5-carboxylic acid methylamide] | 94.6 nM
CCOCCNC(=O)c1cn(Cc2ccc(C#N)cc2)c(C)c(-c2cccc(C(F)(F)F)c2)c1=O [Example 1.24] | 10 nM
Cc1c(-c2cccc(C(F)(F)F)c2)c(=O)c(C(=O)NCc2ccc(S(C)(=O)=O)c[n+]2[O-])cn1Cc1ccc(C#N)cc1 [Example 14, Pyridin-N-oxide of example 4.1] | < 1 nM
Cc1c(-c2ccnc(C(F)(F)F)c2)c(=O)c(C(=O)NCCCN(C)C)cn1C(C)c1ccc(C#N)cc1 (stereo not shown) [Example 9.11] | 18.3 nM
CNC(=O)c1cn(C(C)c2ccc(C#N)cc2)c(C)c(-c2cccc(C)c2)c1=O (stereo not shown) [Example 29] | 14.4 nM
CNC(=O)c1cn(Cc2ccc(C#N)nc2)c(C)c(-c2cccc(C(F)(F)F)c2)c1=O [Example 3.2] | 53.7 nM
Cc1c(-c2ccnc(C(F)(F)F)c2)c(=O)c(C(=O)NCCC#N)cn1C(C)c1ccc(C#N)cc1 (stereo not shown) [Example 9.54] | 4.1 nM
CNC(=O)c1cn(Cc2ccc(C#N)cc2F)c(C)c(-c2cccc(C(F)F)c2)c1=O [Example 32] | 11.8 nM

Now from value to compound:

IC50 | SMILES
18.4 nM | CCC(c1ccc(C#N)cc1)n1cc(C(=O)NC)c(=O)c(-c2ccnc(C(F)(F)F)c2)c1C (stereo not shown) [Example 36, 1-[1-(4-Cyano-phenyl)-propyl]-2-methyl-4-oxo-2′-trifluoromethyl-1,4-dihydro-[3,4′]bipyridinyl-5-carboxylic acid methylamide]
5.4 nM | CCNC(=O)c1cn(C(C)c2ccc(C#N)cn2)c(C)c(-c2cccc(C(F)F)c2)c1=O (stereo not shown) [Example 18, 1-[1-(5-Cyano-pyridin-2-yl)-ethyl]-5-(3-difluoromethyl-phenyl)-6-methyl-4-oxo-1,4-dihydro-pyridine-3-carboxylic acid ethylamide]
3 nM | CCNC(=O)c1cn(C(C)c2ccc(C#N)cc2)c(C)c(-c2cccc(C(F)F)c2)c1=O (stereo not shown) [Example 8.21]
22 nM | Cc1c(-c2cccc(C(F)(F)F)c2)c(=O)c(C(=O)NCC2CCCO2)cn1Cc1ccc(C#N)cc1 (stereo not shown) [Example 1.47]
83.8 nM | Cc1c(-c2cccc(C(F)(F)F)c2)c(=O)c(C(=O)NCc2ccc(S(C)(=O)=O)cc2)cn1Cc1cccc(C#N)c1 [Example 2.10]
13.3 nM | CNC(=O)c1cn(C(C)c2ccc(C#N)cc2)c(C)c(-c2ccc(F)c(C(F)F)c2)c1=O (stereo not shown) [Example 28]
13.3 nM | Cc1nc(CNC(=O)c2cn(Cc3ccc(C#N)cc3)c(C)c(-c3cccc(C(F)(F)F)c3)c2=O)no1 [Example 1.60]
31.6 nM | Cc1c(-c2cccc(C(F)(F)F)c2)c(=O)c(C(=O)NC2CCOCC2)cn1Cc1ccc(C#N)cc1 [Example 1.29]
10.7 nM | Cc1c(-c2cccc(C(F)(F)F)c2)c(=O)c(C(=O)NCC(F)(F)F)cn1C(C)c1ccc(C#N)cn1 (stereo not shown) [Example 47.3]
1510 nM | CNC(=O)c1cn(C(C)c2ccc(C#N)cc2)c(C)c(-c2ccnc(C(F)(F)F)c2)c1=O (single isomer, unassigned) [Example 9B]
1.8 nM | COCCCNC(=O)c1cn(C(C)c2ccc(C#N)cc2)c(C)c(-c2cccc(C(F)F)c2)c1=O (stereo not shown) [Example 8.25]
1.6 nM | Cc1c(-c2cccc(C(F)F)c2)c(=O)c(C(=O)NC2CCN(C)C2=O)cn1C(C)c1ccc(C#N)cc1 (stereo not shown) [Example 8.10]
1.1 nM | Cc1c(-c2cccc(C(F)F)c2)c(=O)c(C(=O)NCC[S+](C)[O-])cn1C(C)c1ccc(C#N)cc1 (stereo not shown) [Example 8.8]
4.1 nM | Cc1c(-c2cccc(C(F)(F)F)c2)c(=O)c(C(=O)NC2COC2)cn1C(C)c1ccc(C#N)cc1 (stereo not shown) [Example 7.19]
14.9 nM | Cc1c(-c2ccnc(C(F)(F)F)c2)c(=O)c(C(=O)NCC2CC(O)C2)cn1C(C)c1ccc(C#N)cc1 (stereo not shown) [Example 9.47]
7.3 nM | Cc1c(-c2ccnc(C(F)(F)F)c2)c(=O)c(C(=O)NCC(F)F)cn1C(C)c1ccc(C#N)cc1 (stereo not shown) [Example 9.22]
8.1 nM | CNC(=O)c1cn(Cc2ccc(C#N)cc2S(=O)(=O)C2CC2)c(C)c(-c2cccc(C(F)(F)F)c2)c1=O [Example 27]
1.3 nM | Cc1c(-c2cccc(C(F)(F)F)c2)c(=O)c(C(=O)NCC[S+](C)[O-])cn1C(C)c1ccc(C#N)cc1 (stereo not shown) [Example 7.8]
< 1 nM | Cc1c(-c2cccc(C(F)F)c2)c(=O)c(C(=O)NCc2ccc(S(C)(=O)=O)cc2)cn1Cc1ccc(C#N)cc1F [Example 41, 1-(4-Cyano-2-fluoro-benzyl)-5-(3-difluoromethyl-phenyl)-6-methyl-4-oxo-1,4-dihydro-pyridine-3-carboxylic acid 4-methanesulfonyl-benzylamide]
7.4 nM | Cc1c(-c2cccc(C(F)(F)F)c2)c(=O)c(C(=O)NCCCS(C)(=O)=O)cn1Cc1ccc(C#N)cc1 [Example 1.16]
8.6 nM | CNC(=O)c1cn(Cc2ccc(C#N)cc2S(C)(=O)=O)c(C)c(-c2cccc(C(F)(F)F)c2)c1=O [Example 20]
< 1 nM | Cc1c(-c2cccc(C(F)(F)F)c2)c(=O)c(C(=O)NCC#N)cn1C(C)c1ccc(C#N)cc1 (stereo not shown) [Example 7.18]
